Data taken from ChEMBL document CHEMBL5579894, “Antimicrobial Dihydroflavonols and Isoflavans Isolated from the Root Bark of Dalbergia gloveri” (2024).
In brackets after ≈: the same amount, converted by molar mass.

Key:
Assay type in all cases: functional
Staphylococcus aureus = test: Antibacterial activity against Staphylococcus aureus assessed as reduction in microbial growth incubated for 24 hrs by microdilution method
Escherichia coli = test: Antibacterial activity against Escherichia coli assessed as reduction in microbial growth incubated for 24 hrs by microdilution method
Candida albicans = test: Antifungal activity against Candida albicans assessed as reduction in fungal growth incubated for 24 hrs by microdilution method

| SMILES | MIC (Staphylococcus aureus) [µM] | MIC (Escherichia coli) [µM] | MIC (Candida albicans) [µM] |
| --- | --- | --- | --- |
| C=C(CO)[C@H]1Cc2c(ccc3c(=O)c4c(oc23)COc2cc(OC)c(OC)cc2-4)O1 | 612 | > 1000 | > 1000 |
| CC(=O)O[C@H]1CC[C@]2(C)[C@H]3CC=C4[C@@H]5CC(C)(C)CC[C@]5(C(=O)O)CC[C@@]4(C)[C@]3(C)CC[C@H]2C1(C)C [ACETYL OLEANOLIC ACID] | 251 | > 1000 | 251 (≈ 125 µg/mL) |
| C=C(CO)[C@H]1Cc2c(ccc3c2O[C@@H]2COc4cc(OC)c(OC)cc4[C@]2(O)C3=O)O1 [DABINOL] | 293 | > 1000 | 147 (≈ 62.5 µg/mL) |
| CC(C)=CCCC1(C)C=Cc2c(ccc(C(=O)/C=C/c3ccc(O)cc3)c2O)O1 (configuration not stated) [LESPEOL] | 40 | 64 | 40 (≈ 15.6 µg/mL) |
| O=C(/C=C/c1ccc(O)cc1)c1ccc(O)cc1O [ISOLIQUIRITIGENIN] | 488 | > 1000 | > 1000 |
| CC(C)=CCC/C(C)=C/Cc1c(O)ccc2c(=O)c(O)c(-c3ccc(O)c(O)c3)oc12 | > 1000 | > 1000 | > 1000 |

Stronger by MIC (Staphylococcus aureus), values ahead:

| MIC (Staphylococcus aureus) [µM] | MIC (Escherichia coli) [µM] | MIC (Candida albicans) [µM] | SMILES |
| --- | --- | --- | --- |
| 36.9 | 296 | 36.9 (≈ 15.6 µg/mL) | COc1ccc(C2COc3c(ccc4c3C=CC(C)(CCC=C(C)C)O4)C2)c(O)c1O (configuration not stated) |
| 36.9 | > 1000 | 74.1 (≈ 31.3 µg/mL) | CC(C)=CCC[C@]1(C)C=Cc2c(ccc3c2O[C@H](c2ccc(O)c(O)c2)[C@@H](O)C3=O)O1 |
| 36.7 | 294 | 73.7 (≈ 31.3 µg/mL) | COc1ccc([C@@H]2COc3c(ccc(O)c3C/C=C(\C)CCC=C(C)C)C2)c(O)c1O |
| 36.7 | 294 | 73.7 (≈ 31.3 µg/mL) | CC(C)=CCC/C(C)=C/Cc1cc([C@H]2Oc3cc(O)ccc3C(=O)[C@@H]2O)cc(O)c1O |
| 18.4 | > 1000 | 73.7 (≈ 31.3 µg/mL) | C=C[C@@](C)(CCC=C(C)C)c1cc([C@@H]2COc3cc(O)ccc3C2)c(O)c(O)c1OC |
| 14.2 | > 1000 | 56.9 (≈ 15.6 µg/mL) | O=C(CC(O)c1ccc(O)cc1)c1ccc(O)cc1O (configuration not stated) |
| 9.2 | 296 | 74.1 (≈ 31.3 µg/mL) | CC(C)=CCC[C@]1(C)C=Cc2cc([C@H]3Oc4cc(O)ccc4C(=O)[C@@H]3O)cc(O)c2O1 |
| 0.5 | 0.5 | 0.5 (≈ 0.275 µg/mL) | CCCCCCCCN=c1ccn(CCCCCCCCCCn2ccc(=NCCCCCCCC)cc2)cc1 [OCTENIDINE] |
